# Reference: patent publication US20260217735A1, “HETEROCYCLES AND USES THEREOF” (Kumquat Biosciences Inc., priority 2023, published 2026)
# Assays:
# KRAS G12V = molecular target: T1, KRAS G12V (Homo sapiens, UniProt P01116, G12V); assay: HTRF assay, KRAS G12V interaction with SOS1; format: biochemical; settings: bins <500 nM / 500 nM to 1000 nM, read-out: Inhibition of KRAS G12V (IC50)
# T1 construct: made in house; host or cells: E. coli, e.g. BL21 (DE3)
# MiaPaca2 cells = assay: Ras cellular assay, growth of cells with K-Ras G12C mutation; format: cell-based; settings: Homo sapiens, MIA PaCa-2; cell proliferation assay; bins ≤500 nM / >500 nM; read-out: Inhibition of MiaPaca2 Cells (IC50)
# Outline: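 Anchorage-independent growth: G12C-mutant MIA PaCa-2 plated in soft agar, time-zero plate read the next day when compound was dosed (final DMSO 0.3%). After growth to day 10, MTS-type absorbance at 490/660 nm relative to time zero gave IC50 via four-parameter fitting.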
# KRAS G12S = molecular target: T2, KRAS G12S (Homo sapiens, UniProt P01116, G12S); assay: HTRF assay, KRAS G12S interaction with SOS1; format: biochemical; settings: bins <500 nM / 500 nM to 1000 nM, read-out: Inhibition of KRAS G12S (IC50)
# T2 construct: made in house; host or cells: E. coli, e.g. BL21 (DE3)
# KRAS G12D = molecular target: T3, KRAS G12D (Homo sapiens, UniProt P01116, G12D); assay: HTRF assay, KRAS G12D interaction with SOS1; format: biochemical; settings: bins <500 nM / 500 nM to 1000 nM, read-out: Inhibition of KRAS G12D (IC50)
# T3 construct: made in house; host or cells: E. coli, e.g. BL21 (DE3)
# KRAS WT = molecular target: T4, KRAS WT (Homo sapiens, UniProt P01116); assay: HTRF assay, wildtype KRAS interaction with SOS1; format: biochemical; settings: bins <500 nM / 500 nM to 1000 nM, read-out: Inhibition of KRAS WT (IC50)
# T4 construct: made in house; host or cells: E. coli, e.g. BL21 (DE3)
# T4 sequence (P01116 1-188 isoform P01116-2): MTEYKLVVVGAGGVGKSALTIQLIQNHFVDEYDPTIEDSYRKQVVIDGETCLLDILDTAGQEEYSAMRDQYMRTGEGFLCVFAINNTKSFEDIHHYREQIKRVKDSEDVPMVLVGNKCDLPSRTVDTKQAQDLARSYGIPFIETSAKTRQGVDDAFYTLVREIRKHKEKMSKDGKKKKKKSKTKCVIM
# T3 sequence (P01116 1-188 isoform P01116-2 G12D): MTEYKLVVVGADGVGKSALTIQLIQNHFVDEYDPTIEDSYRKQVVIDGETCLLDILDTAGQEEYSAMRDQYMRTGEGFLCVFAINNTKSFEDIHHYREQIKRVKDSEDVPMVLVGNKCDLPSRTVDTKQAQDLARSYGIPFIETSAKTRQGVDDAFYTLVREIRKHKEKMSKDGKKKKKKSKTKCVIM
# T2 sequence (P01116 1-188 isoform P01116-2 G12S): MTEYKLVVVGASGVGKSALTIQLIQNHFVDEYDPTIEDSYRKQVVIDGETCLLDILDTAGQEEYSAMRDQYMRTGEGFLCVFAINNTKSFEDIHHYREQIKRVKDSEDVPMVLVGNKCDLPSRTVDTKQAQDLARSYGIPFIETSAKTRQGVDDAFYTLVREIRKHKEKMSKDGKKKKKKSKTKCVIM
# T1 sequence (P01116 1-188 isoform P01116-2 G12V): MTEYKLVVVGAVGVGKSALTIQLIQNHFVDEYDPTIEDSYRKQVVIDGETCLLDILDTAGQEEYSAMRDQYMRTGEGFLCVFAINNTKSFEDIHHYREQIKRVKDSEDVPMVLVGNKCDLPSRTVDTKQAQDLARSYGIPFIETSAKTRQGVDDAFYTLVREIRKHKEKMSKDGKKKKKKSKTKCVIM
Compound,IC50 (KRAS G12V),IC50 (MiaPaca2 cells),IC50 (KRAS G12S),IC50 (KRAS G12D),IC50 (KRAS WT)
"Cc1c(C#N)ncn1C(=O)N1C[C@]2(CC[C@H](C)N(c3nc(OC[C@@]45CCCN4C[C@H](F)C5)nc4c(F)c(-c5ccc(F)c6sc(N)c(C#N)c56)c(Cl)cc34)C2)[C@H]1C1(C)CC1 [Compound 202, 1-((1R,4R,7S)-6-(7-(2-amino-3-cyano-7-fluorobenzo[b]thiophen-4-yl)-6-chloro-8-fluoro-2-(((2R,7aS)-2-fluorotetrahydro-1H-pyrrolizin-7a(5H)-yl)methoxy)quinazolin-4-yl)-7-methyl-1-(1-methylcyclopropyl)-2,6-diazaspiro[3.5]nonane-2-carbonyl)-5-methyl-1H-imidazole-4-carbonitrile]",< 500 nM,≤ 500 nM,< 500 nM,< 500 nM,< 500 nM
"N#Cc1c(N)sc2c(F)ccc(-c3c(Cl)cc4c(N5CCCCC6(CN(C(=O)n7ccnc7Br)C6)C5)nc(OC[C@@]56CCCN5C[C@H](F)C6)nc4c3F)c12 [Compound 119, 2-amino-4-(4-(2-(2-bromo-1H-imidazole-1-carbonyl)-2,6-diazaspiro[3.6]decan-6-yl)-6-chloro-8-fluoro-2-(((2R,7aS)-2-fluorotetrahydro-1H-pyrrolizin-7a(5H)-yl)methoxy)quinazolin-7-yl)-7-fluorobenzo[b]thiophene-3-carbonitrile]",< 500 nM,≤ 500 nM,< 500 nM,< 500 nM,< 500 nM
"Cc1nccn1C(=O)N1CC[C@@H](N(C)c2nc(OC[C@@]34CCCN3C[C@H](F)C4)nc3c(F)c(-c4ccc(F)c5sc(N)c(C#N)c45)c(Cl)cc23)[C@H]1C [Compound 120, 2-amino-4-(6-chloro-8-fluoro-2-(((2R,7aS)-2-fluorotetrahydro-1H-pyrrolizin-7a(5H)-yl)methoxy)-4-(methyl((2R,3R)-2-methyl-1-(2-methyl-1H-imidazole-1-carbonyl)pyrrolidin-3-yl)amino)quinazolin-7-yl)-7-fluorobenzo[b]thiophene-3-carbonitrile]",< 500 nM,≤ 500 nM,< 500 nM,< 500 nM,< 500 nM
"C[C@@H]1[C@H](N(C)c2nc(OC[C@@]34CCCN3C[C@H](F)C4)nc3c(F)c(-c4ccc(F)c5sc(N)c(C#N)c45)c(Cl)cc23)CCN1C(=O)n1cnc(Cl)c1 [Compound 211, 2-amino-4-(6-chloro-4-(((2R,3R)-1-(4-chloro-1H-imidazole-1-carbonyl)-2-methylpyrrolidin-3-yl)(methyl)amino)-8-fluoro-2-(((2R,7aS)-2-fluorotetrahydro-1H-pyrrolizin-7a(5H)-yl)methoxy)quinazolin-7-yl)-7-fluorobenzo[b]thiophene-3-carbonitrile]",< 500 nM,≤ 500 nM,< 500 nM,< 500 nM,< 500 nM
"CCN(c1nc(OC[C@@]23CCCN2[C@H](COc2ccc(C(F)(F)F)nn2)CC3)nc2c(F)c(-c3ccc(F)c4sc(N)c(C#N)c34)c(Cl)cc12)[C@@H]1CCN(C(=O)n2cc(C)nc2C)[C@@H]1C [Compound 182, 2-amino-4-(6-chloro-4-(((2R,3R)-1-(2,4-dimethyl-1H-imidazole-1-carbonyl)-2-methylpyrrolidin-3-yl)(ethyl)amino)-8-fluoro-2-(((3S,7aS)-3-(((6-(trifluoromethyl)pyridazin-3-yl)oxy)methyl)tetrahydro-1H-pyrrolizin-7a(5H)-yl)methoxy)quinazolin-7-yl)-7-fluorobenzo[b]thiophene-3-carbonitrile]",< 500 nM,≤ 500 nM,< 500 nM,< 500 nM,< 500 nM
"Cc1cn(C(=O)N2CC(F)(CN(C)c3nc(OC[C@@]45CCCN4C[C@H](F)C5)nc4c(F)c(-c5ccc(F)c6sc(N)c(C#N)c56)c(Cl)cc34)C2)cn1 [Compound 128, 2-amino-4-(6-chloro-8-fluoro-4-(((3-fluoro-1-(4-methyl-1H-imidazole-1-carbonyl)azetidin-3-yl)methyl)(methyl)amino)-2-(((2R,7aS)-2-fluorotetrahydro-1H-pyrrolizin-7a(5H)-yl)methoxy)quinazolin-7-yl)-7-fluorobenzo[b]thiophene-3-carbonitrile]",< 500 nM,≤ 500 nM,< 500 nM,< 500 nM,< 500 nM
"Cc1nc(C#N)cn1C(=O)N1C[C@]2(CCCCN(c3nc(OC[C@@]45CCCN4C[C@H](F)C5)nc4c(F)c(-c5ccc(F)c6sc(N)c(C#N)c56)c(Cl)cc34)C2)[C@H]1C [Compound 165, 1-((1R,4R)-6-(7-(2-amino-3-cyano-7-fluorobenzo[b]thiophen-4-yl)-6-chloro-8-fluoro-2-(((2R,7aS)-2-fluorotetrahydro-1H-pyrrolizin-7a(5H)-yl)methoxy)quinazolin-4-yl)-1-methyl-2,6-diazaspiro[3.6]decane-2-carbonyl)-2-methyl-1H-imidazole-4-carbonitrile]",< 500 nM,≤ 500 nM,< 500 nM,< 500 nM,< 500 nM
"CC(C)[C@@H]1C[C@H](N(C)c2nc(OC[C@@]34CCCN3C[C@H](F)C4)nc3c(F)c(-c4ccc(F)c5sc(N)c(C#N)c45)c(Cl)cc23)CN1C(=O)n1cnc(Cl)n1 [Compound 216, 2-amino-4-(6-chloro-4-(((3S,5S)-1-(3-chloro-1H-1,2,4-triazole-1-carbonyl)-5-isopropylpyrrolidin-3-yl)(methyl)amino)-8-fluoro-2-(((2R,7aS)-2-fluorotetrahydro-1H-pyrrolizin-7a(5H)-yl)methoxy)quinazolin-7-yl)-7-fluorobenzo[b]thiophene-3-carbonitrile]",< 500 nM,> 500 nM,< 500 nM,500 to 1000 nM,< 500 nM
"CC[C@@H]1[C@H](N(C)c2nc(OC[C@@]34CCCN3C[C@H](F)C4)nc3c(F)c(-c4ccc(F)c5sc(N)c(C#N)c45)c(Cl)cc23)CCN1C(=O)n1cnc(F)n1 [Compound 134, 2-amino-4-(6-chloro-4-(((2R,3R)-2-ethyl-1-(3-fluoro-1H-1,2,4-triazole-1-carbonyl)pyrrolidin-3-yl)(methyl)amino)-8-fluoro-2-(((2R,7aS)-2-fluorotetrahydro-1H-pyrrolizin-7a(5H)-yl)methoxy)quinazolin-7-yl)-7-fluorobenzo[b]thiophene-3-carbonitrile]",< 500 nM,≤ 500 nM,< 500 nM,< 500 nM,< 500 nM

# Results, then the compound that gave them:
IC50 (KRAS G12V),IC50 (MiaPaca2 cells),IC50 (KRAS G12S),IC50 (KRAS G12D),IC50 (KRAS WT),Compound
< 500 nM,≤ 500 nM,< 500 nM,< 500 nM,< 500 nM,"CC1C(N(C)c2nc(OC[C@@]34CCCN3C[C@H](F)C4)nc3c(F)c(-c4ccc(F)c5sc(N)c(C#N)c45)c(Cl)cc23)CCN1C(=O)n1cnc(F)n1 (stereo partly drawn) [Compound 160, 2-amino-4-(6-chloro-8-fluoro-4-((1-(3-fluoro-1H-1,2,4-triazole-1-carbonyl)-2-methylpyrrolidin-3-yl)(methyl)amino)-2-(((2R,7aS)-2-fluorotetrahydro-1H-pyrrolizin-7a(5H)-yl)methoxy)quinazolin-7-yl)-7-fluorobenzo[b]thiophene-3-carbonitrile]"
< 500 nM,≤ 500 nM,< 500 nM,< 500 nM,< 500 nM,"CC[C@@H]1[C@H](N(CC)c2nc(OC[C@@]34CCCN3C[C@H](F)C4)nc3c(F)c(-c4ccc(F)c5sc(N)c(C#N)c45)c(Cl)cc23)CCN1C(=O)n1cnc(F)n1 [Compound 168, 2-amino-4-(6-chloro-4-(ethyl((2R,3R)-2-ethyl-1-(3-fluoro-1H-1,2,4-triazole-1-carbonyl)pyrrolidin-3-yl)amino)-8-fluoro-2-(((2R,7aS)-2-fluorotetrahydro-1H-pyrrolizin-7a(5H)-yl)methoxy)quinazolin-7-yl)-7-fluorobenzo[b]thiophene-3-carbonitrile]"
< 500 nM,≤ 500 nM,< 500 nM,< 500 nM,< 500 nM,"CCN(c1nc(OC[C@@]23CCCN2C[C@H](F)C3)nc2c(F)c(-c3ccc(F)c4sc(N)c(C#N)c34)c(C(F)(F)F)cc12)[C@@H]1CCN(C(=O)n2cnc(F)n2)[C@@H]1C (atropisomer, axis not shown; (aS)) [Compound 125, 2-amino-4-((S)-4-(ethyl((2R,3R)-1-(3-fluoro-1H-1,2,4-triazole-1-carbonyl)-2-methylpyrrolidin-3-yl)amino)-8-fluoro-2-(((2R,7aS)-2-fluorotetrahydro-1H-pyrrolizin-7a(5H)-yl)methoxy)-6-(trifluoromethyl)quinazolin-7-yl)-7-fluorobenzo[b]thiophene-3-carbonitrile]"
< 500 nM,≤ 500 nM,< 500 nM,< 500 nM,< 500 nM,"CCN(c1nc(OC[C@@]23CCCN2C[C@H](F)C3)nc2c(F)c(-c3ccc(F)c4sc(N)c(C#N)c34)c(Cl)cc12)[C@@H]1CCN(C(=O)n2cnc(OC)c2)[C@@H]1C [Compound 170, 2-amino-4-(6-chloro-4-(ethyl((2R,3R)-1-(4-methoxy-1H-imidazole-1-carbonyl)-2-methylpyrrolidin-3-yl)amino)-8-fluoro-2-(((2R,7aS)-2-fluorotetrahydro-1H-pyrrolizin-7a(5H)-yl)methoxy)quinazolin-7-yl)-7-fluorobenzo[b]thiophene-3-carbonitrile]"
